Entries after “also recorded” stand apart in the source; their conditions may differ.
Legend:
HCT-116 Luc+ tumors = assay: mouse xenograft model, tumor growth; assay type: in vivo; settings: 200 mg/kg/day, twice daily, ip; Balb C nude mice
Experimental: (§1) A mouse xenograft model was used to evaluate the efficacy of N3PT in modulating tumor growth. Cancer cells (HCT-116 Luc+, comprising a stably transfected luciferase gene) were injected subcutaneously (10^6 cells) into Balb C nude mice on both flanks on day 7 prior to treatment. Tumors were allowed to grow to palpable size from test day 0, defined as the start of a treatment regime. N3PT was injected ip (intraperitoneally) at a given regimen (e.g., 200 mg/kg/day) and tumor size monitored by luminance intensity from day 0-7, caliper measurement after day 7, and by weight at the end of study, after the animals were sacrificed. See, e.g., Wang and El-Deiry, Cancer Biol Ther. 2(2):196-202 (2003); Ray et al., Cancer Res. 63(6):1160-5 (2003); see also, e.g., U.S. Pat. Nos. 6,416,960; 6,596,257; and 6,217,847.

[1] = overall animal weight and major organ weight of treated mice; assay type: in vivo, mouse; settings: 200 mg/kg/day
Experimental: as §1

transketolase [2] = target: T1, transketolase (Mus musculus, UniProt P40142); assay: transketolase activity in blood and tissues of N3PT-treated mice; assay type: in vivo
T1 construct: from tissue; host or cells: whole blood, spleen, brain and other tissues of Balb C nude mice; also xenograft tumours
T1 sequence (P40142 1-623): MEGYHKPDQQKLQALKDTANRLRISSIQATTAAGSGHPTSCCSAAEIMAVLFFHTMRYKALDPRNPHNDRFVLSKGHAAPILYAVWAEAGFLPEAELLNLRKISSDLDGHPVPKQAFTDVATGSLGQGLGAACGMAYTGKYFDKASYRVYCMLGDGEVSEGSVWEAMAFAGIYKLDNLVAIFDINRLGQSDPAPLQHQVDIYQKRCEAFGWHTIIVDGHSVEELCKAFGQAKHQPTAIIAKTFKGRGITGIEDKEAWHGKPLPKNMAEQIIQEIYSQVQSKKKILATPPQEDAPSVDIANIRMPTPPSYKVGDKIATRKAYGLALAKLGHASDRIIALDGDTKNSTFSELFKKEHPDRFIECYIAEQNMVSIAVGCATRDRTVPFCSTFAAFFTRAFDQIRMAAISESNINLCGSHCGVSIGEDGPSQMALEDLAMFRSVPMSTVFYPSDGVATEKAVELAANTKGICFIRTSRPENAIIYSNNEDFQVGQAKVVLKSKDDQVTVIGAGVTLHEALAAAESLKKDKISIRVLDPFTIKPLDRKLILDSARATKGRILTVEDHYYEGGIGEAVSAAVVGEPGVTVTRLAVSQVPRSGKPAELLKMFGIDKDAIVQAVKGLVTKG
Experimental: (§2) […] Blood samples were taken (40 μl whole blood) serially or from sacrificed animals at the end of a study. Tissues, including tumor, brain, heart, kidney, liver, lung, spleen, were taken and flash frozen in liquid nitrogen or on dry ice and stored at −80° C. until assay. Blood was diluted into lysis buffer and dissolved. Tissues were suspended in lysis buffer and homogenized with PowerGen 125 (Fisher Scientific) while being submerged in an ice-water bath.
(§3) Transketolase assays were performed as in Example 2. The lysate was used right away or flash frozen and stored at −80° C. until assay. The protein concentration in the lysate was determined using a Bradford assay (BioRad) with BSA as a standard. The enzymatic velocity was normalized to the total protein concentration for inter-sample comparisons. In order to obtain reliable results across samples, it was important to have similar starting protein concentrations (such as within 30%). This was achieved by weighing the tissue before lysis so that the suspensions contained similar tissue/ml lysis buffer for all samples.

transketolase [3] = assay: as above; assay type: in vivo, mouse; settings: 200 mg/kg/day, relative to vehicle
Experimental: as §2, §3

In the case of `Cc1ccc(C[n+]2csc(CCO)c2C)c(N)n1` [N3PT, 3-[(2-amino-6-methyl-3-pyridinyl)methyl]-5-(2-hydroxyethyl)-4-methyl thiazolium], the “growth of explant tumors” value (HCT-116 Luc+ tumors) is reported as “inhibits growth of tumors in vivo; also recorded: inhibited the growth of explant tumors”, the overall animal weight ([1]; day 0, 6 and 11) is reported as “no effect on overall animal weight; also recorded: did not affect” and the “major organ weight (brain, heart, kidney, liver, lung, spleen)” value ([1]; day 11 post treatment) is reported as “no effect on major organ weight; also recorded: did not affect”. For the same compound, the “transketolase activity in whole blood” value (transketolase [2]; 200 mg/kg/day, relative to vehicle) was “reduced; also recorded: selectively inhibited”, the “sensitivity of spleen transketolase to N3PT on low-thiamine diet” value (transketolase [2]; diets with 16.5, 5, 1 or 0 mg/kg thiamine, N3PT ip, 12 hours later) was “enhances the sensitivity to N3PT inhibition of TK in spleen; also recorded: more sensitive to TK inhibition by N3PT” and the “selectivity of transketolase inhibition in vivo versus kGDH and G6PDH” value (transketolase [2]; single dose 100 mg/kg body weight, mouse, 100 mg/kg) was “selective inhibitor of transketolase in vivo; also recorded: selectively inhibits transketolase”. The “duration of transketolase inhibition in vivo” value (transketolase [2]; single dose 100 mg/kg i.p., blood and spleen, 0-120 hr, 100 mg/kg) was “potent and long-lasting transketolase inhibitor in vivo” and the “transketolase activity in tumors” value (transketolase [3]) was “reduced”.

Reference: patent publication US20080234304A1, “N3-Pyridyl-Thiamine And Its Use In Cancer Treatments” (AVEO PHARMACEUTICALS, INC., priority 2004, published 2008)
